According to ChEMBL document CHEMBL3272119, “Adrenergic agents. 8.1 Synthesis and beta-adrenergic agonist activity of some 3-tert-butylamino-2-(substituted phenyl)-1-propanols” (J Med Chem, 1977):

Experiments:
[1] = organism: Cavia porcellus; assay: Selectivity ratio of ED25 for beta-1 adrenergic receptor in guinea pig right atria to ED50 for beta-2 adrenergic receptor in guinea pig tracheal chain
[2] = molecular target: Beta-2 adrenergic receptor (Cavia porcellus) (UniProt Q8K4Z4); conditions: Trachea
Chain of Beta-2 adrenergic receptor (Cavia porcellus) (Q8K4Z4 whole entry, looked up): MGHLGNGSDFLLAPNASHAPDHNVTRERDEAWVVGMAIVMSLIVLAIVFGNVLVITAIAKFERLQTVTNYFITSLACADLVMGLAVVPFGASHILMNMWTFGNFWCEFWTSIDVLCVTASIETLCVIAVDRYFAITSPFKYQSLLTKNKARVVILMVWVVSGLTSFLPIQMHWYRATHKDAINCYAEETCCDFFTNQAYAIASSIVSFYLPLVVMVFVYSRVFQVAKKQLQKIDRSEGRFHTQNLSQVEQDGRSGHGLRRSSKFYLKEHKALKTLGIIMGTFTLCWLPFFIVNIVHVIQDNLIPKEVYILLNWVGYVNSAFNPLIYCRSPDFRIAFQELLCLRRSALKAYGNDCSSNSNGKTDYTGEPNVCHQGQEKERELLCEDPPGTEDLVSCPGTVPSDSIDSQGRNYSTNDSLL
Description: Agonist activity at beta-2 adrenergic receptor in guinea pig tracheal chain assessed as relaxation of spontaneously contracted tracheal smooth muscle

[3] = molecular target: Beta-1 adrenergic receptor (Cavia porcellus) (UniProt B0FL73)
Chain of Beta-1 adrenergic receptor (Cavia porcellus) (B0FL73 1-467): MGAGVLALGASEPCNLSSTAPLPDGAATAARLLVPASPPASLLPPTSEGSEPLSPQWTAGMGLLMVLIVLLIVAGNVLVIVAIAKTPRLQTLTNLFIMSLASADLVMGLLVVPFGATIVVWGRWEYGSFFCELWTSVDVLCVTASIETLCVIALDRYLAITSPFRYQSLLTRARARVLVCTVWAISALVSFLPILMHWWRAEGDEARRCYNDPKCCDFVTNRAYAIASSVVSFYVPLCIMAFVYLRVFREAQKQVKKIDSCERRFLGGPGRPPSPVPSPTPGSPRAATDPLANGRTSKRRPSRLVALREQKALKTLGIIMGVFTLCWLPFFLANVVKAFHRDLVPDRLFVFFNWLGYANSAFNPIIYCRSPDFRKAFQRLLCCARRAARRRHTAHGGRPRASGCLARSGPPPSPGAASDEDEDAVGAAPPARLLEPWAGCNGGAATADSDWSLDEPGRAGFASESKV

[4] = molecular target: Beta-1 adrenergic receptor (Cavia porcellus) (UniProt B0FL73); assay: Intrinsic activity at beta-1 adrenergic receptor in guinea pig right atria assessed as increase in contraction rate of spontaneously beating right atria relative to isoproterenol
[5] = molecular target: Beta-1 adrenergic receptor (Cavia porcellus) (UniProt B0FL73); assay: Agonist activity at beta-1 adrenergic receptor in guinea pig right atria assessed as increase in contraction rate of spontaneously beating right atria at 6.3 X 10^-5 M relative to control
[6] = molecular target: Beta-1 adrenergic receptor (Cavia porcellus) (UniProt B0FL73); assay: Agonist activity at beta-1 adrenergic receptor in guinea pig right atria assessed as increase in contraction rate of spontaneously beating right atria at 1.1 X 10^-5 M relative to control

Row | Compound | Selectivity ratio [1] | ED50 [2] | ED25 [3] | Intrinsic activity [4] | Activity [5] [%] | Activity [6] [%]
1 | CC(C)(C)NCC(CO)c1ccc(O)c(NC(N)=O)c1 (stereo not drawn) | 18 | 5.2 ×10⁻⁷ M | 9.3 µM | 0.3 |  | 
2 | COC(CNC(C)C)c1ccc(O)c(O)c1 (stereo not drawn) |  | 1.6 µM | 3 ×10⁻⁷ M |  |  | 
3 | CC(C)(C)NCC(CO)c1ccc(O)cc1 (stereo not drawn) | 24 | 4.1 µM | 9.8 ×10⁻⁵ M | 0.3 |  | 
4 | CC(C)NCC(O)c1ccc(O)c(NS(C)(=O)=O)c1 (stereo not drawn) | 3 | 2.6 ×10⁻⁸ M | 7.6 ×10⁻⁸ M | 0.7 |  | 
5 | CC(C)NCC(O)c1ccc(O)cc1 (stereo not drawn) | 0.7 | 1.1 ×10⁻⁷ M | 7.7 ×10⁻⁸ M | 0.3 |  | 
6 | CC(C)(C)NCC(CO)c1ccc(O)c(O)c1 (stereo not drawn) | 2.9 | 3.3 ×10⁻⁸ M | 9.6 ×10⁻⁸ M | 1 |  | 
7 | CC(C)(C)NCC(O)c1ccc(O)c(CO)c1 (stereo not drawn) | 28 | 1.1 ×10⁻⁸ M | 3.1 ×10⁻⁷ M | 0.7 |  | 
8 | CC(C)NCC(O)c1ccc(O)c(O)c1 (stereo not drawn) |  | 0.0071 µM |  |  |  | 
9 | CC(C)NCC(C)(O)c1ccc(O)c(O)c1 (stereo not drawn) |  | 3.4 µM |  |  | 18 | 
10 | CC(C)(C)NCC(O)c1ccc(O)c(NC(N)=O)c1 (stereo not drawn) | 34 | 1.9 ×10⁻⁸ M | 6.4 ×10⁻⁷ M | 0.5 |  | 
11 | CC(C)(C)NCC(CO)c1ccc(O)c(NS(C)(=O)=O)c1 (stereo not drawn) |  | 6 ×10⁻⁷ M |  |  |  | 18
12 | CC(C)(C)NCC(CO)c1ccc(O)c(CO)c1 (stereo not drawn) | 10 | 4.6 µM | 4.7 ×10⁻⁵ M | 0.25 |  | 
13 | CC(C)(C)NCC(O)c1ccc(O)c(O)c1 (stereo not drawn) | 5.5 | 0.0013 µM | 0.0071 µM | 1 |  | 
14 | CC(C)(C)NCC(CO)c1ccc(O)c(N)c1 (stereo not drawn) | 1.4 | 9.6 ×10⁻⁷ M | 1.3 µM | 0.7 |  | 
15 | CC(C)(C)NCC(O)c1ccc(O)c(N)c1 (stereo not drawn) | 5.2 |  |  |  |  | 
